How the values were obtained:
[1] = target: T1, Serine/threonine-protein kinase 4 (Homo sapiens) (UniProt Q13043); assay: Selectivity interaction (KinomeScan (DiscoverX)) EUB0000695a STK4; settings: at 100 nM
T1 sequence (whole entry): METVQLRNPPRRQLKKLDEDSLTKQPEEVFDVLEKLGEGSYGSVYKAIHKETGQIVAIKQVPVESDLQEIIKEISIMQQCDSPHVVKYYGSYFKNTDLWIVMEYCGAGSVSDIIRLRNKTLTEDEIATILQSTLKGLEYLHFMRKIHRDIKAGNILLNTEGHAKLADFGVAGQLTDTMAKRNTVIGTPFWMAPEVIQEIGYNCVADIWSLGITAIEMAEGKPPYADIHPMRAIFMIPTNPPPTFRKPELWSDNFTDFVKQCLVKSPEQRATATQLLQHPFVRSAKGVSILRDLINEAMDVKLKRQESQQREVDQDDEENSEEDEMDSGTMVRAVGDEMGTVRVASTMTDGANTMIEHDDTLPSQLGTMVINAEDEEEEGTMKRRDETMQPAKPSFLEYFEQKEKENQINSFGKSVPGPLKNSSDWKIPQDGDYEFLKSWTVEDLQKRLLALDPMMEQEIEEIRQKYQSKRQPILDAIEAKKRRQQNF

[2] = target: Mitogen-activated protein kinase kinase kinase 4 (Homo sapiens) (UniProt Q9Y6R4); assay: Selectivity interaction (KinomeScan (DiscoverX)) EUB0001079a MAP3K4; settings: at 1 µM
Mitogen-activated protein kinase kinase kinase 4 (Homo sapiens), sequence (Q9Y6R4 whole entry): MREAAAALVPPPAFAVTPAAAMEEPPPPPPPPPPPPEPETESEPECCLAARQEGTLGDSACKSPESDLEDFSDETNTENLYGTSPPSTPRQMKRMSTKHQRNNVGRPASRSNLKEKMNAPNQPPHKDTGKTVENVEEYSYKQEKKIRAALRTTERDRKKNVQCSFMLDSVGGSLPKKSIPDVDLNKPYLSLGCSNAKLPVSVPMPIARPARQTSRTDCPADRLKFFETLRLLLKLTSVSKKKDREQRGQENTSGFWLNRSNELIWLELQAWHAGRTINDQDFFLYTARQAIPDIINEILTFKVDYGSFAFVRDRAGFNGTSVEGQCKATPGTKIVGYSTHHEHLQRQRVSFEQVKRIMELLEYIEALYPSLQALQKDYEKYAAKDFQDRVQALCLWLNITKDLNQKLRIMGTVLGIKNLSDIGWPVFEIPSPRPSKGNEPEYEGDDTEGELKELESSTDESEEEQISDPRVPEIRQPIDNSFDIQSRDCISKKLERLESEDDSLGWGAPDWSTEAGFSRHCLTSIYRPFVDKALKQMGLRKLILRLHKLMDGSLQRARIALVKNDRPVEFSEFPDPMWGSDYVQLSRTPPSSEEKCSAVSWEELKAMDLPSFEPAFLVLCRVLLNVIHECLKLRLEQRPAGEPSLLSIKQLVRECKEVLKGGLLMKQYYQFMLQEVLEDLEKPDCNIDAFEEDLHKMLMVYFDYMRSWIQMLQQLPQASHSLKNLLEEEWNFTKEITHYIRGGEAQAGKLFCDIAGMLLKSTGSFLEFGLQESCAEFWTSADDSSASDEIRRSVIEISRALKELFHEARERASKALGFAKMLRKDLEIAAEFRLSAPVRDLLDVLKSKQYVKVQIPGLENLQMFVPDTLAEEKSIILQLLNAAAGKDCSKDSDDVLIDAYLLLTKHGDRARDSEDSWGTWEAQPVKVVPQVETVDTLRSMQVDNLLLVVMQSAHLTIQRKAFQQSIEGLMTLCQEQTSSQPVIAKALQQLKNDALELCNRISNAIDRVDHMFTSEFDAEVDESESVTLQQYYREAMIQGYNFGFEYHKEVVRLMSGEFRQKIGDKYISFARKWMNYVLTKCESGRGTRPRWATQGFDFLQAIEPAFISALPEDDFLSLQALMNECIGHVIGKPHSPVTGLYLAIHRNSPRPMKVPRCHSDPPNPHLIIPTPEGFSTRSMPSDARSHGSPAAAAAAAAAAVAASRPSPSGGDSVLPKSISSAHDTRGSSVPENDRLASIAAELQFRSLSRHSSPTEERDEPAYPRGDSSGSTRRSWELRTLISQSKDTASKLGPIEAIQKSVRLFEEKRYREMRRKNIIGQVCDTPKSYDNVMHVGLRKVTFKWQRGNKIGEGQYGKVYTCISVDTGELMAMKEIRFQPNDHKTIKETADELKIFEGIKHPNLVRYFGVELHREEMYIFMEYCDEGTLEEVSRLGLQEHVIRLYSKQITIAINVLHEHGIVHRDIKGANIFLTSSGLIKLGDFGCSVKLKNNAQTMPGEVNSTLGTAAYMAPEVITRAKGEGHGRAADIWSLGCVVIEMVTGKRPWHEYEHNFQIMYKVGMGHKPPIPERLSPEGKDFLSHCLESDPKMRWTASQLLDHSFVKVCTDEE

[3] = target: Casein kinase II subunit alpha' (Homo sapiens) (UniProt P19784); assay: Selectivity interaction (KinomeScan (DiscoverX)) EUB0001079a CSNK2A2; settings: at 1 µM
Casein kinase II subunit alpha' (Homo sapiens), sequence (P19784 whole entry, looked up): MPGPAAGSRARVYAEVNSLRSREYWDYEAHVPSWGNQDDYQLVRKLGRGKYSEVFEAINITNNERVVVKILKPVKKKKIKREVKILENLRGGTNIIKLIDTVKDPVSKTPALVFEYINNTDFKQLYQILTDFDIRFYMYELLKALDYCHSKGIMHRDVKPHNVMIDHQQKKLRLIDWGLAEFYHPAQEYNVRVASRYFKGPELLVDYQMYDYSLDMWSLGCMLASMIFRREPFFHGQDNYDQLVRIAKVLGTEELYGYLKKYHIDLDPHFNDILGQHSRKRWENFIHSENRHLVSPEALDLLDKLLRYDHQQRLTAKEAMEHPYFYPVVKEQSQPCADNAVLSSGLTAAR

[4] = tested on: Tyrosine-protein kinase ABL1 (Homo sapiens), P00519 [H396P]; assay: Selectivity interaction (KinomeScan (DiscoverX)) EUB0001079a ABL1; settings: at 1 µM
[5] = target: Serine/threonine-protein kinase SIK3 (Homo sapiens) (UniProt Q9Y2K2); assay: Selectivity interaction (LanthaScreen Eu Kinase Binding Assay) EUB0001632a SIK3; settings: at 10 µM
[6] = target: D(4) dopamine receptor (Homo sapiens) (UniProt P21917); assay: Selectivity interaction (Eurofins CEREP Diversity Profile (receptors and ion channels)) EUB0000279b DRD4; settings: at 10 µM
D(4) dopamine receptor (Homo sapiens), sequence (P21917 whole entry): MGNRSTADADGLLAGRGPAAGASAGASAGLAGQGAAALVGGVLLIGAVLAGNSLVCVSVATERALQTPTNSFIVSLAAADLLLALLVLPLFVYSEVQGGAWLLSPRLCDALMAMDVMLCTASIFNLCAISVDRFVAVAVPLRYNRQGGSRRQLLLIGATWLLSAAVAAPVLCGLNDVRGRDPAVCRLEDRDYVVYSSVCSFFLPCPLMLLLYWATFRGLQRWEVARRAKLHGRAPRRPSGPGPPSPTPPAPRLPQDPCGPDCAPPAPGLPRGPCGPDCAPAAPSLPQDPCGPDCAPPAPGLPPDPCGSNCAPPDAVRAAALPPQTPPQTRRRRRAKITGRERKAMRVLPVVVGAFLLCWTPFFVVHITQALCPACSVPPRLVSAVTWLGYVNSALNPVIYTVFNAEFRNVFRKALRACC

[7] = target: Dual specificity mitogen-activated protein kinase kinase 2 (Homo sapiens) (UniProt P36507); assay: Selectivity interaction (ProQinase) EUB0000171b MAP2K2
Dual specificity mitogen-activated protein kinase kinase 2 (Homo sapiens), sequence (P36507 whole entry): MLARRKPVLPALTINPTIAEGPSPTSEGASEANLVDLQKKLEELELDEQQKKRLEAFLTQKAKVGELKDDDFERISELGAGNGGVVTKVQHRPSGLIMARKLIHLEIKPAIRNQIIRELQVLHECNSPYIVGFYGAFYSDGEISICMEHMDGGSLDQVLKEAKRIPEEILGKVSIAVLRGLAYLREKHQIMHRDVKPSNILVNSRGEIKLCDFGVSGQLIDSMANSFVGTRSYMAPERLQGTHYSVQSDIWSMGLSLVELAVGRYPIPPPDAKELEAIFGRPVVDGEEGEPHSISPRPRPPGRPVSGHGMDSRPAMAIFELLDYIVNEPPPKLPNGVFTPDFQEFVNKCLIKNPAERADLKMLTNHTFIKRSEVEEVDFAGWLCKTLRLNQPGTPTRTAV

[8] = target: Activin receptor type-2B (Homo sapiens) (UniProt Q13705); assay: Selectivity interaction (ProQinase) EUB0000171b ACVR2B
Activin receptor type-2B (Homo sapiens), sequence (Q13705 whole entry): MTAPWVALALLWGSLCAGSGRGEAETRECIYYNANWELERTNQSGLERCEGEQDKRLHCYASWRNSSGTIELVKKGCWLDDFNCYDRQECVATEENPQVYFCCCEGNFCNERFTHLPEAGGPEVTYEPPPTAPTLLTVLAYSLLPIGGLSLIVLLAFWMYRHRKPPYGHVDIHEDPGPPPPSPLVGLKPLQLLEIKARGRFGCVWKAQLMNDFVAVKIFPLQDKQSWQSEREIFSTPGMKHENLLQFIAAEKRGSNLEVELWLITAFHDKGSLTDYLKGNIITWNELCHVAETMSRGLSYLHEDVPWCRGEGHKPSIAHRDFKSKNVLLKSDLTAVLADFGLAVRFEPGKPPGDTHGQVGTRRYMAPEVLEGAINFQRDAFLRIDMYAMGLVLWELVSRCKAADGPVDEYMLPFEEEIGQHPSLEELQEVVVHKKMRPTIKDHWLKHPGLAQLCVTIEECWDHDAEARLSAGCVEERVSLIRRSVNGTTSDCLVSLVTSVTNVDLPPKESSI

[9] = target: Vasopressin V1a receptor (Homo sapiens) (UniProt P37288); assay: Selectivity interaction (Panel of kinases, GPCRs, ion channels and transporters (enzymatic assay)) EUB0000223bCl AVPR1A
Vasopressin V1a receptor (Homo sapiens), sequence (P37288 whole entry, looked up): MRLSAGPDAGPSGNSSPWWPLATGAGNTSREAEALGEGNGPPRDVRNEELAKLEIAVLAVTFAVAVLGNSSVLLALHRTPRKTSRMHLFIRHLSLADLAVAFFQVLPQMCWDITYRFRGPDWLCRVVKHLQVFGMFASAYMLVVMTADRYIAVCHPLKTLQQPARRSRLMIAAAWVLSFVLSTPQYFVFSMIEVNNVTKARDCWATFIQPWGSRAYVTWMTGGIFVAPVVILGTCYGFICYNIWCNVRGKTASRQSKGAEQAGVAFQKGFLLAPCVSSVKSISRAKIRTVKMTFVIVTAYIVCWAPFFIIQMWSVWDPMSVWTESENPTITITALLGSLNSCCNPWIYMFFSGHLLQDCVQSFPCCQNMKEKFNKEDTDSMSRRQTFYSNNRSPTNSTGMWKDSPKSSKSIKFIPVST

[10] = tested on: Serine/threonine-protein kinase B-raf (Homo sapiens), P15056 [V600E]; assay: (§1) Selectivity interaction (KinomeScan (DiscoverX)) EUB0001619a BRAF; settings: at 1 µM
Serine/threonine-protein kinase B-raf (Homo sapiens), P15056 [V600E], sequence (P15056 whole entry V600E): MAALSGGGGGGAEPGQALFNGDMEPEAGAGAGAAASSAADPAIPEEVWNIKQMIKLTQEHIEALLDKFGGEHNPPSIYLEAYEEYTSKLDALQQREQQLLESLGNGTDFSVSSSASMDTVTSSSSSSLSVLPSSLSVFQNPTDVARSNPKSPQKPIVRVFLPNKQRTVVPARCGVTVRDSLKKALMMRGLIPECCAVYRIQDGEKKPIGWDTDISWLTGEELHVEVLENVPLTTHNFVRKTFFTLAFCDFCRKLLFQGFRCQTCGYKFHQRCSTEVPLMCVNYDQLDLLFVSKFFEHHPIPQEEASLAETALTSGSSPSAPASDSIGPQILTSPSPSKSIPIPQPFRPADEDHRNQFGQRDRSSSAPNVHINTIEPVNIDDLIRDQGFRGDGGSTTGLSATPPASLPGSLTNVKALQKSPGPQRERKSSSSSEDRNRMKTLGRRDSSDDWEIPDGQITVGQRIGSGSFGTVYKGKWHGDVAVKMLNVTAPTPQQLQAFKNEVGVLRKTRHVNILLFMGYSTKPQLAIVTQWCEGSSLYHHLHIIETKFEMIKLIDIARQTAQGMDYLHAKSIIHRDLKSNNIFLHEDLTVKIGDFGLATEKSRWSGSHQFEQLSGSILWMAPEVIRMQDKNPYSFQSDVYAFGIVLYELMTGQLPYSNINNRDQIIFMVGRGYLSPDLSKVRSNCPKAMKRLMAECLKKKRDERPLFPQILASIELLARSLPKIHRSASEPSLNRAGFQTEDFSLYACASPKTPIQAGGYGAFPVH

[11] = target: Serine/threonine-protein kinase B-raf (Homo sapiens) (UniProt P15056); assay: as §1; settings: at 1 µM
Serine/threonine-protein kinase B-raf (Homo sapiens), sequence (P15056 whole entry): as the sequence (P15056 whole entry V600E) above, with E600V counted along it

[12] = target: T2, Dual specificity tyrosine-phosphorylation-regulated kinase 2 (Homo sapiens) (UniProt Q92630); assay: Selectivity interaction (KinomeScan (DiscoverX)) EUB0001619a DYRK2; settings: at 1 µM
T2 sequence (whole entry): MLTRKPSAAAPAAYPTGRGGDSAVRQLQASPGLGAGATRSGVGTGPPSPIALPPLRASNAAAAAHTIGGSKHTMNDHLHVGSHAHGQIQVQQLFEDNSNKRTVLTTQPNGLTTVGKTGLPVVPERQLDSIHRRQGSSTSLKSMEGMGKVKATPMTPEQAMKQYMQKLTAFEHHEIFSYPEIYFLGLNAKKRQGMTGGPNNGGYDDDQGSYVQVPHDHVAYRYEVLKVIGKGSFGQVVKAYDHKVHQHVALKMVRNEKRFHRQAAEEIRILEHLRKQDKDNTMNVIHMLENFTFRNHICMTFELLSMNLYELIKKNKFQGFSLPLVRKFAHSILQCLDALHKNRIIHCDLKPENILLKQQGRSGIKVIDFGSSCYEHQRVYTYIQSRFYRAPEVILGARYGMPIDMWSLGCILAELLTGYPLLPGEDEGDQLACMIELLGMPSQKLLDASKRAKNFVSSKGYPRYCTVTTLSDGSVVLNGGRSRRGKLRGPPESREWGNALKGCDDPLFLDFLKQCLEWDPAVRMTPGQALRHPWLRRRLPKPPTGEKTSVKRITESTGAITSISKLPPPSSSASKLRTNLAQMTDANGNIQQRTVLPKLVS

[13] = target: Serine/threonine-protein kinase pim-2 (Homo sapiens, UniProt Q9P1W9); assay: Selectivity interaction (KinomeScan (DiscoverX)) EUB0000618a PIM2; settings: at 10 µM
Serine/threonine-protein kinase pim-2, sequence (Q9P1W9 whole entry, looked up): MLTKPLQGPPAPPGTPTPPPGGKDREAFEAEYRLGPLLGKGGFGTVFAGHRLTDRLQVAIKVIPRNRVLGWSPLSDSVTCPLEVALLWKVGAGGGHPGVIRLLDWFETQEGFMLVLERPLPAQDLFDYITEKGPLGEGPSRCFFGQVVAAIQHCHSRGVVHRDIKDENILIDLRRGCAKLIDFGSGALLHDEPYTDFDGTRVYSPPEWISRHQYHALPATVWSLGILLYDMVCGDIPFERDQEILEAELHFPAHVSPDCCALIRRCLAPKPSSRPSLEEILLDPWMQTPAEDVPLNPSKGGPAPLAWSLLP

[14] = target: cAMP-dependent protein kinase catalytic subunit alpha (Homo sapiens, UniProt P17612); assay: Selectivity interaction (KinomeScan (DiscoverX)) EUB0000655a PRKACA; settings: at 10 µM
[15] = target: T3, Serine/threonine-protein kinase D3 (Homo sapiens) (UniProt O94806); settings: at 10 µM
T3 sequence (whole entry): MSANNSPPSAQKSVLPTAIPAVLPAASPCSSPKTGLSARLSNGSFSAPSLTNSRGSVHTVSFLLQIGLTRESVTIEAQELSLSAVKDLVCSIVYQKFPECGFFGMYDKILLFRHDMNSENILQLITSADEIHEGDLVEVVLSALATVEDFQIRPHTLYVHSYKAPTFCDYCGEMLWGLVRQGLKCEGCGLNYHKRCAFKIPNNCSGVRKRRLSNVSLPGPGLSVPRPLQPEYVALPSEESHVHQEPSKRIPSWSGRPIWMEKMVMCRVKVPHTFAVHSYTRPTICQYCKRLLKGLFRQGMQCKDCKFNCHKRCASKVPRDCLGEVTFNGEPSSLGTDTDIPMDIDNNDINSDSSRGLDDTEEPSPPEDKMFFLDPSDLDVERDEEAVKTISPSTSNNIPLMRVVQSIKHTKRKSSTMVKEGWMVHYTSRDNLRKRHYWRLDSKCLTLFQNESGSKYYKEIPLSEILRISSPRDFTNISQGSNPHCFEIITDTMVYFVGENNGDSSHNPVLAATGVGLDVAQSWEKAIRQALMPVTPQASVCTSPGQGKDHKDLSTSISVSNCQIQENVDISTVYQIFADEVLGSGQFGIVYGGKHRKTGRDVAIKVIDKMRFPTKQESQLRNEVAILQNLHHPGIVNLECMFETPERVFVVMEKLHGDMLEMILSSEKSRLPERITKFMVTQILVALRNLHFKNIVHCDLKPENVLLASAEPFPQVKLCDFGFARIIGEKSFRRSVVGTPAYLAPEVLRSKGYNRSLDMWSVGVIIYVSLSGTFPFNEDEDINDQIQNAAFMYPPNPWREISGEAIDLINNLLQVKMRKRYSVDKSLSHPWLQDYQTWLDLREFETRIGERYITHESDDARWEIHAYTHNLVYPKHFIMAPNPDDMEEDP

SMILES: Cc1cc(F)c(C(=O)Nc2cccc(-c3nncn3C(C)C)n2)cc1-n1cnc(C2CC2)c1
- % of control [1]: 100%

SMILES: Nc1cnc(N2CCc3cc(S(=O)(=O)Nc4c(F)cc(Cl)cc4F)cc(N4CCCC4=O)c32)nc1 [TP-020n]
- % of control [2]: 85%
- % of control [3]: 98%
- % of control [4]: 86%

SMILES: Cn1cc(-n2cnc3c(NCc4nc5cc(Cl)c(Cl)cc5[nH]4)nc(N4CCOCC4)nc32)cn1
- % of inhibition [5]: 12.2%

SMILES: CC(=O)c1cc(-c2ccccc2OCC2CC2)c2ncccn12
- % of control [6]: 103%

SMILES: C=CC(=O)Nc1cccc(C(=O)Nc2ccc(Nc3cc(-c4[nH]c(SC)nc4C)ccn3)cc2)c1
- % of control ([7]; at 1 µM): 76%
- % of control ([7]; at 5 µM): 36%
- % of control ([8]; at 1 µM): 88%
- % of control ([8]; at 5 µM): 68%

SMILES: COc1cc(C(=O)N2CC[C@@H](O)[C@@H](N)C2)cc2nc(-c3cc4ccccc4n3CC3CC3)n(C)c12
- pXC50 [9]: 4.6 M

SMILES: N#Cc1cccc(-c2c[nH]c3ncnc(N4CCOCC4)c23)c1
- % of control [10]: 69%
- % of control [11]: 80%
- % of control [12]: 92%

SMILES: O[C@H]1CC[C@H](Nc2ncc3nc(Nc4c(F)cc(F)cc4F)n([C@H]4CCOC4)c3n2)CC1
- % of control [13]: 100%

SMILES: CN(C)CCOc1ccc(-c2nc(-c3ccncc3)c(-c3ccc4c(c3)CC/C4=N\O)[nH]2)cc1
- % of control [14]: 67%

SMILES: CCN(CC)CCCCNc1ncc2cc(-c3cc(OC)cc(OC)c3)c(NC(=O)NC(C)(C)C)nc2n1
- % of control [15]: 100%

— ChEMBL document CHEMBL5465560, “Selectivity Literature for EUbOPEN Chemogenomic Library” (2024)
